Test results from US20240398828A1, “HETERO-ATOM CONTAINING COMPOUNDS AND USES THEREOF” (Kumquat Biosciences Inc., priority 2021, published 2024).

Key:
PTPN1 (i.e., PTP1B) = biological target: T1, PTPN1 (i.e., PTP1B) (Homo sapiens, UniProt P18031); assay: Phosphatase activity assay (DiFMUP substrate), PTP1B; type: biochemical; details: compounds binned ≤1 uM or >1 uM
T1 sequence (P18031 1-435): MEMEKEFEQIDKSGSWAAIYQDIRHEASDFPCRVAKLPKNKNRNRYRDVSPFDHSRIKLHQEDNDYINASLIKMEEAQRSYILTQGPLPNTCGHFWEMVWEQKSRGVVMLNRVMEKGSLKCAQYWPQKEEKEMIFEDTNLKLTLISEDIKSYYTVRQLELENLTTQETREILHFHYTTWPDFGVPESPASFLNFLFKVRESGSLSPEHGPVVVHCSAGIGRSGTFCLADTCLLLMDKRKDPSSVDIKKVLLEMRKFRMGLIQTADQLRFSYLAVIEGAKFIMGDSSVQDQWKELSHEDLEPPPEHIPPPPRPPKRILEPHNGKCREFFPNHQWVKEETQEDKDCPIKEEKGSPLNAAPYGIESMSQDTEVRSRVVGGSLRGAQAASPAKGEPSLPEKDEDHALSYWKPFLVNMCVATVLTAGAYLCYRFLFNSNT
How it was run: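 Enzyme (e.g. PTPN2 0.025 ng/ul) mixed about 2 min with compound at 10 serial concentrations in 50 mM HEPES pH 7.5, 150 mM NaCl, 0.5 mM EDTA, 1 mM DTT, 0.001% Tween-20 at room temperature. DiFMUP added at each enzyme's Km (about 45 μM for PTPN2). DiFMU fluorescence (ex 360/em 450 nm) followed 15-30 min; IC50 from 4-parameter fit of rates.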

PTPN2 (i.e., TC-PTP) = biological target: T2, PTPN2 (i.e., TC-PTP) (Homo sapiens, UniProt P17706); assay: Phosphatase activity assay (DiFMUP substrate), PTPN2; type: biochemical; details: compounds binned ≤1 uM or >1 uM
T2 sequence (P17706 1-415): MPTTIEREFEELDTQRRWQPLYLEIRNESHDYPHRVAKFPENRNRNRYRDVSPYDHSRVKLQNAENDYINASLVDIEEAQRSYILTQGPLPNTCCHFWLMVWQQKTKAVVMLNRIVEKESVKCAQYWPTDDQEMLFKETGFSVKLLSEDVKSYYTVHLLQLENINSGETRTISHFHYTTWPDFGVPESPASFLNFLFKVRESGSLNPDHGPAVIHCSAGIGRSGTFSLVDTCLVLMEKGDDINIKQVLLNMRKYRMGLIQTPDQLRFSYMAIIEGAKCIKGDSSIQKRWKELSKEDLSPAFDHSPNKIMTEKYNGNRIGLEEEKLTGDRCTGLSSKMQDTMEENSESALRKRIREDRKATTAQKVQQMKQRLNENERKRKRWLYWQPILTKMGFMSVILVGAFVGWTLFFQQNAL
How it was run: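 Continuous fluorogenic readout of DiFMUP dephosphorylation at room temperature, substrate set at Km for each phosphatase (about 45 μM in the PTPN2 assay). The buffer contains 1 mM DTT and 0.001% Tween-20, pH 7.5.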

Compound	IC50 (PTPN1 (i.e., PTP1B))	IC50 (PTPN2 (i.e., TC-PTP))
O=C1CN(c2c(O)ccc(-c3cnn(C4CCOCC4)c3)c2F)S(=O)(=O)N1 [Compound 214, 5-(2-fluoro-6-hydroxy-3-(1-(tetrahydro-2H-pyran-4-yl)-1H-pyrazol-4-yl)phenyl)-1,2,5-thiadiazolidin-3-one 1,1-dioxide]	≤ 1000 nM	≤ 1000 nM
O=C1CN(c2c(O)ccc(-c3cn(C4CCOCC4)cn3)c2F)S(=O)(=O)N1 [Compound 328, 5-(2-fluoro-6-hydroxy-3-(1-(tetrahydro-2H-pyran-4-yl)-1H-imidazol-4-yl)phenyl)-1,2,5-thiadiazolidin-3-one 1,1-dioxide]	≤ 1000 nM	≤ 1000 nM
CN1CC2(C1)CN(c1cc(-c3ccc(O)c(N4CC(=O)NS4(=O)=O)c3F)[nH]n1)C2 [Compound 252, 5-(2-fluoro-6-hydroxy-3-(3-(6-methyl-2,6-diazaspiro[3.3]heptan-2-yl)-1H-pyrazol-5-yl)phenyl)-1,2,5-thiadiazolidin-3-one 1,1-dioxide]	≤ 1000 nM	≤ 1000 nM
O=C1CN(c2c(O)ccc(-c3cnc(C4CC4)[nH]3)c2F)S(=O)(=O)N1 [Compound 406, 5-(3-(2-cyclopropyl-1H-imidazol-5-yl)-2-fluoro-6-hydroxyphenyl)-1,2,5-thiadiazolidin-3-one 1,1-dioxide]	≤ 1000 nM	≤ 1000 nM
O=C1CN(c2c(O)ccc(-c3cc(C4=CCOCC4)n[nH]3)c2F)S(=O)(=O)N1 [Compound 402, 5-(3-(3-(3,6-dihydro-2H-pyran-4-yl)-1H-pyrazol-5-yl)-2-fluoro-6-hydroxyphenyl)-1,2,5-thiadiazolidin-3-one 1,1-dioxide]	≤ 1000 nM	≤ 1000 nM
Nc1nc2ccc(-c3ccc(O)c(N4CC(=O)NS4(=O)=O)c3F)cc2s1 [Compound 135, 5-(3-(2-aminobenzo[d]thiazol-6-yl)-2-fluoro-6-hydroxyphenyl)-1,2,5-thiadiazolidin-3-one 1,1-dioxide]	≤ 1000 nM	≤ 1000 nM
O=C1CN(c2c(O)ccc(-c3cn(CCC(F)F)nc3F)c2F)S(=O)(=O)N1 [Compound 530, 5-(3-(1-(3,3-difluoropropyl)-3-fluoro-1H-pyrazol-4-yl)-2-fluoro-6-hydroxyphenyl)-1,2,5-thiadiazolidin-3-one 1,1-dioxide]	≤ 1000 nM	≤ 1000 nM
N#CC1(c2cc(-c3ccc(O)c(N4CC(=O)NS4(=O)=O)c3F)[nH]n2)CC1 [Compound 441, 1-(5-(3-(1,1-dioxido-4-oxo-1,2,5-thiadiazolidin-2-yl)-2-fluoro-4-hydroxyphenyl)-1H-pyrazol-3-yl)cyclopropane-1-carbonitrile]	≤ 1000 nM	≤ 1000 nM
O=C1CN(c2c(O)ccc(-c3cn(-c4ccc(C(F)(F)F)cc4)cn3)c2F)S(=O)(=O)N1 [Compound 318, 5-(2-fluoro-6-hydroxy-3-(1-(4-(trifluoromethyl)phenyl)-1H-imidazol-4-yl)phenyl)-1,2,5-thiadiazolidin-3-one 1,1-dioxide]	≤ 1000 nM	≤ 1000 nM
Cc1ncc(-c2ccc(O)c(N3CC(=O)NS3(=O)=O)c2F)cn1 [Compound 139, 5-(2-fluoro-6-hydroxy-3-(2-methylpyrimidin-5-yl)phenyl)-1,2,5-thiadiazolidin-3-one 1,1-dioxide]	≤ 1000 nM	≤ 1000 nM
CC(C)CCc1cc(-c2ccc(O)c(N3CC(=O)NS3(=O)=O)c2F)[nH]n1 [Compound 389, 5-(2-fluoro-6-hydroxy-3-(3-isopentyl-1H-pyrazol-5-yl)phenyl)-1,2,5-thiadiazolidin-3-one 1,1-dioxide]	≤ 1000 nM	≤ 1000 nM
O=C1CN(c2c(O)ccc(-c3cnn(Cc4cncc(F)c4)c3)c2F)S(=O)(=O)N1 [Compound 111, 5-(2-fluoro-3-(1-((5-fluoropyridin-3-yl)methyl)-1H-pyrazol-4-yl)-6-hydroxyphenyl)-1,2,5-thiadiazolidin-3-one 1,1-dioxide]	≤ 1000 nM	≤ 1000 nM
COCC1C=C(c2ccc(O)c(N3CC(=O)NS3(=O)=O)c2F)CN1 (stereo not drawn) [Compound 481, 5-(2-fluoro-6-hydroxy-3-(5-(methoxymethyl)-2,5-dihydro-1H-pyrrol-3-yl)phenyl)-1,2,5-thiadiazolidin-3-one 1,1-dioxide]	≤ 1000 nM	≤ 1000 nM
O=C1CN(c2c(O)ccc(-c3cc(N4CCC4)n[nH]3)c2F)S(=O)(=O)N1 [Compound 417, 5-(3-(3-(azetidin-1-yl)-1H-pyrazol-5-yl)-2-fluoro-6-hydroxyphenyl)-1,2,5-thiadiazolidin-3-one 1,1-dioxide]	≤ 1000 nM	≤ 1000 nM
CN1CC(n2cc(-c3ccc(O)c(N4CC(=O)NS4(=O)=O)c3F)cn2)C1 [Compound 310, 5-(2-fluoro-6-hydroxy-3-(1-(1-methylazetidin-3-yl)-1H-pyrazol-4-yl)phenyl)-1,2,5-thiadiazolidin-3-one 1,1-dioxide]	≤ 1000 nM	≤ 1000 nM
CC(C)Cc1cc(-c2ccc(O)c(N3CC(=O)NS3(=O)=O)c2F)[nH]n1 [Compound 370, 5-(2-fluoro-6-hydroxy-3-(3-isobutyl-1H-pyrazol-5-yl)phenyl)-1,2,5-thiadiazolidin-3-one 1,1-dioxide]	≤ 1000 nM	≤ 1000 nM

Results, then the molecule that gave them:

IC50 (PTPN1 (i.e., PTP1B))	IC50 (PTPN2 (i.e., TC-PTP))	Compound
≤ 1000 nM	≤ 1000 nM	O=C1CN(c2c(O)ccc(-c3cc(N4CCOCC4)n[nH]3)c2F)S(=O)(=O)N1 [Compound 286, 5-(2-fluoro-6-hydroxy-3-(3-morpholino-1H-pyrazol-5-yl)phenyl)-1,2,5-thiadiazolidin-3-one 1,1-dioxide]
> 1000 nM	> 1000 nM	O=C1CN(c2c(O)ccc(-c3cc(O)cc4ccccc34)c2F)S(=O)(=O)N1 [Compound 218, 5-(2-fluoro-6-hydroxy-3-(3-hydroxynaphthalen-1-yl)phenyl)-1,2,5-thiadiazolidin-3-one 1,1-dioxide]
≤ 1000 nM	≤ 1000 nM	CC(C)CCn1cc(-c2ccc(O)c(N3CC(=O)NS3(=O)=O)c2F)cn1 [Compound 203, 5-(2-fluoro-6-hydroxy-3-(1-isopentyl-1H-pyrazol-4-yl)phenyl)-1,2,5-thiadiazolidin-3-one 1,1-dioxide]
≤ 1000 nM	≤ 1000 nM	O=C1CN(c2c(O)ccc(-c3cnn(C4CC5(CC5)C4)c3)c2F)S(=O)(=O)N1 [Compound 414, 5-(2-fluoro-6-hydroxy-3-(1-(spiro[2.3]hexan-5-yl)-1H-pyrazol-4-yl)phenyl)-1,2,5-thiadiazolidin-3-one 1,1-dioxide]
≤ 1000 nM	≤ 1000 nM	Cn1nc(-c2ccc(O)c(N3CC(=O)NS3(=O)=O)c2F)cc1CCC#N [Compound 432, 3-(3-(3-(1,1-dioxido-4-oxo-1,2,5-thiadiazolidin-2-yl)-2-fluoro-4-hydroxyphenyl)-1-methyl-1H-pyrazol-5-yl)propanenitrile]
≤ 1000 nM	≤ 1000 nM	O=C1CN(c2c(O)ccc(-c3cc(C4CC4)no3)c2F)S(=O)(=O)N1 [Compound 256, 5-(3-(3-cyclopropylisoxazol-5-yl)-2-fluoro-6-hydroxyphenyl)-1,2,5-thiadiazolidin-3-one 1,1-dioxide]
≤ 1000 nM	≤ 1000 nM	CS(=O)(=O)n1nc(C2CC2)cc1-c1ccc(O)c(N2CC(=O)NS2(=O)=O)c1F [Compound 495, 5-(3-(3-cyclopropyl-1-(methylsulfonyl)-1H-pyrazol-5-yl)-2-fluoro-6-hydroxyphenyl)-1,2,5-thiadiazolidin-3-one 1,1-dioxide]
≤ 1000 nM	≤ 1000 nM	O=C1CN(c2c(O)ccc(-c3cc4ccccc4[nH]3)c2F)S(=O)(=O)N1 [Compound 258, 5-(2-fluoro-6-hydroxy-3-(1H-indol-2-yl)phenyl)-1,2,5-thiadiazolidin-3-one 1,1-dioxide]
≤ 1000 nM	≤ 1000 nM	CS(=O)(=O)NC1CC=C(c2ccc(O)c(N3CC(=O)NS3(=O)=O)c2F)CC1 (stereo not drawn) [Compound 363, N-(3′-(1,1-dioxido-4-oxo-1,2,5-thiadiazolidin-2-yl)-2′-fluoro-4′-hydroxy-2,3,4,5-tetrahydro-[1,1′-biphenyl]-4-yl)methanesulfonamide]
≤ 1000 nM	≤ 1000 nM	CCOc1ccc(-c2ccc(O)c(N3CC(=O)NS3(=O)=O)c2F)cn1 [Compound 226, 5-(3-(6-ethoxypyridin-3-yl)-2-fluoro-6-hydroxyphenyl)-1,2,5-thiadiazolidin-3-one 1,1-dioxide]
> 1000 nM	> 1000 nM	CC(C)CCn1cc(-c2cc(O)cc(N3CC(=O)NS3(=O)=O)c2)cn1 [Compound 184, 5-(3-hydroxy-5-(1-isopentyl-1H-pyrazol-4-yl)phenyl)-1,2,5-thiadiazolidin-3-one 1,1-dioxide]
